One series deals with ICR mouse. As to the kind of experiment: Animal test: blood glucose after oral glucose load in mice dosed by oral gavage. The following applies: for response versus vehicle control (negative group), p<0.05 / Means at 20 min. (mean value of glucose level at 20 min. minus glucose level at time zero, before glucose dosing) / blood glucose level as compared with the Vehicle group during the test period (FIG. 5): ICR mouse; for response versus vehicle control (negative group), p<0.05: Metformin Hydrochloride 150 mg/kg, Compound 2 525 and 1050 mg/kg; for Means at 20 min. (mean value of glucose level at 20 min. minus glucose level at time zero, before glucose dosing): 1.5 g/kg glucose 30 min after dosing, in mg/dL; for blood glucose level as compared with the Vehicle group during the test period (FIG. 5): oral gavage, doses as in Table 1. The format is in vivo. The protocol: Approximately 7-9-week-old ICR mouse were purchased from BioLASCO Taiwan Co., Ltd (Taipei, Taiwan).
Linear analysis of the glucose monitoring system: eight concentrations (0, 50, 100, 200, 300, 400, 500, 600 mg/dL) of glucose solution were determined duplicate. The animals were fasted approximately 4 hours before dosing. Then, the animals were administered with the test compounds via oral gavage. After 30 minutes of the test compound dosed, the animals were administered with 1.5 g/kg glucose solution (Concentration: 0.15 g/mL, Dose volume: 10 mL/kg) via oral gavage. The blood glucose was determined before the test compound dosing, before glucose dosing, and after glucose dosing in 5, 15, 20, 25, 30, 40 and 50 minutes.
The results were expressed as means and the statistical significance was evaluated by analysis of variance (ANOVA) followed by least significance difference post hoc test. A level of p<0.05 was considered statistically significant.

The conditions of series [1]: following oral administration; cited from earlier work.

Structures are written as SMILES. Where a name gives a salt, the structure may show the parent alone.

`COC(=O)CC[C@@H](C)[C@H]1CC[C@H]2[C@@H]3[C@H](O)C[C@@H]4C[C@H](OC(=O)NC(=N)NC(=N)N(C)C)CC[C@]4(C)[C@H]3C[C@H](O)[C@]12C` [Compound 2]: in the series with ICR mouse, the “response versus vehicle control (negative group), p<0.05” value was “significantly different” and the “blood glucose level as compared with the Vehicle group during the test period (FIG. 5)” value was “lowered”. Moreover, in the series on ICR mouse (Test 1, 525 mg/kg oral gavage), the “Means at 20 min. (mean value of glucose level at 20 min. minus glucose level at time zero, before glucose dosing)” value turned out to be 225.8. Also, the “Means at 20 min. (mean value of glucose level at 20 min. minus glucose level at time zero, before glucose dosing)” value in the series on ICR mouse (Test 2, 1050 mg/kg oral gavage) is listed as 225.8. Further, in the series with ICR mouse (summary of Example 3), the “effect on hyperglycemia in terms of efficacy in lowering blood glucose in animals” value is recorded as “improved hyperglycemia”.

Consider `CN(C)C(=N)N=C(N)N` [Metformin Hydrochloride], for which the “Means at 20 min. (mean value of glucose level at 20 min. minus glucose level at time zero, before glucose dosing)” value in the series on ICR mouse (150 mg/kg oral gavage) came to 125.4. For the same molecule, in the series with ICR mouse, the “response versus vehicle control (negative group), p<0.05” value is given as “significantly different” and the “blood glucose level as compared with the Vehicle group during the test period (FIG. 5)” value was “lowered”.

As for `CN(C)C(=N)NC(=N)N` [Metformin, N,N-dimethylimidodicarbonimidic diamide], in series [1], the “absorbed drug eliminated via the renal route within the first 24 hours” value is listed as “approximately 90%”. Besides, the “response versus vehicle control (negative group), p<0.05” value in the series on ICR mouse is “significantly different”.

(Values after patent publication US8741882B2, “Anti-diabetic compounds” (Sen Capital, LLC., priority 2012, dated 2014).)
